In patent publication US10231453B2, “5-substituted imidazole derivatives” (BAYER CROPSCIENCE AKTIENGESELLSCHAFT, priority 2015, dated 2019) one finds pest or weed control and chromatographic logP data, which are given here for six molecules.

Where two headings read alike, the source gives them in different places.

A word on the chromatographic logP: it is a lipophilicity value derived from retention on a column. Read a high chromatographic logP as higher lipophilicity.

For series [1], the system named is Pyrenophora teres. Nature of the series: In vivo preventive test on Pyrenophora teres (net blotch on barley), Examples D, Q2 and R4. The conditions noted are these: Pyrenophora teres, 336 h; for pest or weed control at 100 ppm: Example R4, rate of application 100 ppm.
Series [2] has as its system Fusarium nivale (var. majus). Nature of the series: In vivo preventive Fusarium nivale (var. majus) test (wheat), Example O. The following applies: Microdochium nivale, 120 h, 500 ppm of active ingredient, preventive spray, evaluated 5 days after inoculation, read-out: efficacy. The text has this:
After the spray coating has been dried, the plants are slightly injured by using a sandblast and afterwards they are sprayed with a conidia suspension of Fusarium nivale (var. majus).

Series [3] is described as follows: Measurement of LogP values by HPLC on reversed phase columns (EEC directive 79/831 Annex V.A8). The class given is physicochemical. The conditions noted are these: acidic range, Table 1. Here is the method: Measurement of Log P values was performed as outlined above.
In series [4] the test system is Botrytis cinerea. Nature of the series: In vivo preventive test on Botrytis cinerea (grey mould) on gherkin, Examples B, Q1 and R2. The following applies: Botrytis cinerea; for pest or weed control at 100 ppm: Example R2, rate of application 100 ppm.
The subject of series [5] is Blumeria graminis fsp. hordei. The series can be described thus: In vivo preventive Blumeria test (barley), Example K. The following applies: 168 h, 500 ppm of active ingredient, preventive spray, evaluated 7 days after inoculation, read-out: efficacy. The text has this: After the spray coating has been dried, the plants are dusted with spores of Blumeria graminis fsp. hordei.

The test system of series [6] is Uromyces appendiculatus. Nature of the series: In vivo preventive test on Uromyces appendiculatus (bean rust), Examples G and R7. The following applies: 264 h, preventive spray, evaluated 11 days after inoculation.
The test system of series [7] is Sphaerotheca fuliginea. Nature of the series: In vivo preventive test on Sphaerotheca fuliginea (powdery mildew on cucurbits), Examples F and R6. The following applies: Podosphaera fuliginea, 360 h, preventive spray, evaluated 15 days after inoculation.
For series [8], the system named is Fusarium graminearum. Nature of the series: whole plant or invertebrate. The class given is in vivo. The following applies: in Hordeum vulgare, 120 h, read-out: efficacy.
Series [9] has as its system Leptosphaeria nodorum. The series can be described thus: In vivo preventive Leptosphaeria nodorum test (wheat), Example N. The following applies: Parastagonospora nodorum, 192 h, 500 ppm of active ingredient, preventive spray, evaluated 8 days after inoculation, read-out: efficacy. The source says: After the spray coating has been dried, the plants are sprayed with a spore suspension of Leptosphaeria nodorum.

The subject of series [10] is Alternaria brassicae. The series can be described thus: In vivo preventive test on Alternaria brassicae (leaf spot on radish), Examples A and R1. The following applies: Alternaria brassicae, 144 h.
Series [11] relates to Puccinia recondita. The series can be described thus: In vivo preventive test on Puccinia recondita (brown rust on wheat), Examples C and R3. The following applies: Puccinia recondita, 264 h, preventive spray, evaluated 11 days after inoculation.
Series [12] deals with Fusarium culmorum. The series can be described thus: In vivo preventive Fusarium culmorum test (wheat), Example L. The following applies: 120 h, 500 ppm of active ingredient, preventive spray, evaluated 5 days after inoculation, read-out: efficacy. As to the method:
After the spray coating has been dried, the plants are slightly injured by using a sandblast and afterwards they are sprayed with a conidia suspension of Fusarium culmorum.
The test is evaluated 5 days after the inoculation.

Series [13] relates to Septoria tritici. The series can be described thus: In vivo preventive test on Septoria tritici (leaf spot on wheat), Examples E, Q3 and R5. The conditions noted are these: Zymoseptoria tritici, 576 h, preventive spray, evaluated 24 days after inoculation.
In series [14] the test system is Pyricularia oryzae. The series can be described thus: whole plant or invertebrate. The series is classed as in vivo. The following applies: 192 h, read-out: efficacy.
The subject of series [15] is Alternaria solani. The series can be described thus: In vivo preventive Alternaria test (tomatoes), Example H. The following applies: 72 h, 100 ppm of active ingredient, preventive spray, evaluated 3 days after inoculation, read-out: efficacy.
In series [16] the test system is Venturia inaequalis. The series can be described thus: In vivo preventive Venturia test (apples), Example J. The following applies: 240 h, read-out: efficacy.
Experimental: After the spray coating has dried on, the plants are inoculated with an aqueous conidia suspension of the causal agent of apple scab (Venturia inaequalis) and then remain for 1 day in an incubation cabinet at approximately 20° C. and a relative atmospheric humidity of 100%.
The plants are then placed in a greenhouse at approximately 21° C. and a relative atmospheric humidity of approximately 90%.
The test is evaluated 10 days after the inoculation.
Series [17] has as its system Phakopsora pachyrhizi. The series can be described thus: In vivo preventive Phakopsora test (soybeans), Example I. The conditions noted are these: 168 h, 100 ppm of active ingredient, preventive spray, evaluated 7 days after inoculation, read-out: efficacy.
The mark [18] stands for this setting: 500 ppm of active ingredient, preventive spray, evaluated 14 days after inoculation, read-out: efficacy.
The mark [19] stands for this setting: method [a]: LC-UV, 0.1% formic acid in water and acetonitrile as eluent.
Setting [20] is: 500 ppm of active ingredient, preventive spray, evaluated 4 to 5 days after inoculation, read-out: efficacy.
Where [21] appears, read: 500 ppm of active ingredient, bean, read-out: efficacy.
[22] abbreviates: 500 ppm of active ingredient, gherkin, read-out: efficacy.
Where [23] appears, read: 500 ppm of active ingredient, preventive spray, evaluated 6 days after inoculation, read-out: efficacy.
The mark [24] stands for this setting: 500 ppm of active ingredient, wheat, read-out: efficacy.
Setting [25] is: Example R4, rate of application 500 ppm, read-out: Efficacy in %.
Where [26] appears, read: Example R2, rate of application 500 ppm, read-out: Efficacy in %.
Setting [27] is: Example R7, bean, read-out: Efficacy in %.
Setting [28] is: Example R7, bean, 500 ppm, read-out: Efficacy in %.
Where [29] appears, read: Example R6, gherkin, read-out: Efficacy in %.
Setting [30] is: Example R6, gherkin, 500 ppm, read-out: Efficacy in %.
Setting [31] is: Example R3, wheat, read-out: Efficacy in %.
Setting [32] is: Example R3, wheat, 500 ppm, read-out: Efficacy in %.
[33] abbreviates: Example R5, wheat, read-out: Efficacy in %.
[34] abbreviates: Example R5, wheat, 500 ppm, read-out: Efficacy in %.

Consider `OC(Cc1ccccc1Cl)(Cn1cncc1Cl)C1(Cl)CC1` (stereo not drawn) [Example I-02], for which the pest or weed control at 500 ppm in series [1] (setting [18]), in series [2], in series [4] (setting [20]), in [5], in series [6] (setting [21]) and in series [7] (setting [22]) was 90 to 100% throughout. Also, the pest or weed control at 500 ppm fell in the range of 80 to 89% in series [8]; 90 to 100% in [9]; 90 to 100% in series [10] (setting [23]); 80 to 89% in [11] (setting [24]); 70 to 79% in [12]; 90 to 100% in series [13] (setting [24]). In addition, the pest or weed control at 500 ppm in [14] lay within 70 to 79%. Further, the chromatographic logP in series [3] (setting [19]) was found to be 2.32; in [3] (method [c]: LC-UV, 0.1% phosphoric acid and acetonitrile as eluent), 2.

As for `N#Cc1cncn1CC(O)(Cc1ccccc1F)C1(Cl)CC1` (stereo not drawn) [Example I-34, 1-[2-(1-chlorocyclopropyl)-3-(2-fluorophenyl)-2-hydroxypropyl]-1H-imidazole-5-carbonitrile], the pest or weed control at 500 ppm was 90 to 100% in series [1] (setting [18]); 98% in [1] (setting [25]); 90 to 100% in series [2]; 90 to 100% in series [4] (setting [20]); 100% in series [4] (setting [26]); 90 to 100% in series [5]. Further, the pest or weed control at 500 ppm was 90 to 100% in [6] (setting [21]); 100% in series [6] (setting [28]); 90 to 100% in series [7] (setting [22]); 100% in series [7] (setting [30]); 90 to 100% in series [8]; 90 to 100% in series [9]. The pest or weed control at 500 ppm was 90 to 100% in series [10] (setting [23]); 92% in [10] (Example R1, rate of application 500 ppm, read-out: Efficacy in %); 90 to 100% in series [11] (setting [24]); 100% in series [11] (setting [32]); 90 to 100% in [12]; 90 to 100% in series [13] (setting [24]). Besides, the pest or weed control at 500 ppm in series [13] (setting [34]) turned out to be 100%. Besides, the pest or weed control at 100 ppm in series [1] (read-out: Efficacy in %) was 83%; in series [4] (read-out: Efficacy in %), 94%; in series [6] (setting [27]) it was 100%; in series [7] (setting [29]), 100%; in [15] it was 90 to 100%; in series [10] (Example R1, rate of application 100 ppm, read-out: Efficacy in %), 58%. Also, the pest or weed control at 100 ppm is 94% in series [11] (setting [31]), 90 to 100% in [16], 100% in [13] (setting [33]) and 90 to 100% in [17]. Besides, the chromatographic logP in series [3] (setting [19]) was determined as 2.64.

Regarding `C#Cc1cncn1CC(O)(Cc1ccccc1F)C1(Cl)CC1` (stereo not drawn) [Example I-36], the pest or weed control at 500 ppm was 90 to 100% in series [1] (setting [18]); 93% in series [1] (setting [25]); 90 to 100% in [2]; 90 to 100% in series [4] (setting [20]); 100% in series [4] (setting [26]); 90 to 100% in series [5]. For the same molecule, the pest or weed control at 500 ppm is 90 to 100% in series [6] (setting [21]); 100% in series [6] (setting [28]); 90 to 100% in series [7] (setting [22]); 100% in [7] (setting [30]); 80 to 89% in [9]; 90 to 100% in [11] (setting [24]). The pest or weed control at 500 ppm in series [11] (setting [32]) was 94%; in [12], 80 to 89%; in series [13] (setting [24]), 90 to 100%; in series [13] (setting [34]) it was 75%; in series [14], 90 to 100%. Besides, the pest or weed control at 100 ppm in series [1] (read-out: Efficacy in %) was 57%; in series [4] (read-out: Efficacy in %), 100%; in series [6] (setting [27]), 100%; in series [7] (setting [29]), 100%; in [15] it was 90 to 100%; in series [11] (setting [31]) it was 89%. In addition, the figures for the pest or weed control at 100 ppm in series [16], in [13] (setting [33]) and in series [17] were 90 to 100%, 83% and 90 to 100%, respectively. In series [3] (setting [19]), this molecule came in with a chromatographic logP of 1.89.

As for `C#Cc1cncn1CC(O)(Cc1ccccc1Cl)C1(Cl)CC1` (stereo not drawn) [Example I-38], the pest or weed control at 500 ppm lay in the range of 80 to 89% in series [1] (setting [18]); 90 to 100% in series [2]; 90 to 100% in series [4] (setting [20]); 90 to 100% in series [5]; 90 to 100% in [6] (setting [21]); 90 to 100% in series [7] (setting [22]). Also, the pest or weed control at 500 ppm in [9] was 80 to 89%; in [11] (setting [24]) it was 80 to 89%; in series [12] it was 80 to 89%; in series [13] (setting [24]), 90 to 100%; in series [14], 90 to 100%. The chromatographic logP in [3] (setting [19]) was 2.09. The pest or weed control at 100 ppm in [15], in series [16] and in [17] was 90 to 100% throughout.

As for `OC(Cc1ccccc1)(Cn1cncc1Cl)C1(Cl)CC1` (stereo not drawn) [Example I-39], the pest or weed control at 500 ppm in [1] (setting [18]) lay in the range of 90 to 100%; in series [2] it was 70 to 79%; in [4] (setting [20]), 90 to 100%; in series [5], 90 to 100%; in series [6] (setting [21]), 90 to 100%; in series [7] (setting [22]), 90 to 100%. The pest or weed control at 500 ppm in series [8] lay in the range of 90 to 100%; in series [9] it was 70 to 79%; in series [11] (setting [24]) it was 90 to 100%; in series [12] it was 90 to 100%; in [13] (setting [24]) it was 90 to 100%; in series [14], 70 to 79%. Besides, in [3] (setting [19]), the chromatographic logP was found to be 2.04. Also, the pest or weed control at 100 ppm in [15] and in [17] was 90 to 100% in each case.

Turning to `N#Cc1cncn1CC(O)(Cc1cccc(F)c1F)C1(F)CC1` (stereo not drawn) [Example I-95], the pest or weed control at 500 ppm was 80 to 89% in [1] (setting [18]); 90 to 100% in series [2]; 90 to 100% in series [5]; 90 to 100% in series [6] (setting [21]); 90 to 100% in series [7] (setting [22]); 90 to 100% in [8]. The pest or weed control at 500 ppm in series [9] lay within 80 to 89%; in series [11] (setting [24]), 90 to 100%; in [12] it was 90 to 100%; in series [13] (setting [24]), 90 to 100%; in [14], 70 to 79%. This molecule yielded a chromatographic logP in series [3] (setting [19]) of 2.37. In addition, the values for the pest or weed control at 100 ppm in series [15], in series [16] and in [17] were 90 to 100%, 80 to 89% and 90 to 100%, respectively.
